Experiments:
Test in all cases: relative viability (nuclei count vs DMSO), 5 days (fraction); higher = more cells survive
Alpelisib + Vorinostat = compound: Cc1nc(NC(=O)N2CCC[C@H]2C(N)=O)sc1-c1ccnc(C(C)(C)C(F)(F)F)c1 [Alpelisib] + O=C(CCCCCCC(=O)Nc1ccccc1)NO [Vorinostat] (partner 1 µM)
In short: (§1)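 Nuclei were stained with Hoechst during a one-step fixation (final 0.05% Triton X-100, 1% formaldehyde, 1 ug/ml Hoechst) carried out 5 days after dosing, then counted on 4× images. The cells, lung cancer lines in 1536-well plates, had been dosed by pin tool the day after seeding with one drug alone or a fixed anchor-drug dose plus five library-drug doses (not always all listed) in √10 steps. Relative viability is the nuclei count in treated wells divided by that in vehicle wells, and each value is the median of duplicate plates.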

OSI-027 + Navitoclax = compound: COc1cccc2cc(-c3nc([C@H]4CC[C@H](C(=O)O)CC4)n4ncnc(N)c34)[nH]c12 [OSI-027] + CC1(C)CCC(c2ccc(Cl)cc2)=C(CN2CCN(c3ccc(C(=O)NS(=O)(=O)c4ccc(N[C@H](CCN5CCOCC5)CSc5ccccc5)c(S(=O)(=O)C(F)(F)F)c4)cc3)CC2)C1 [Navitoclax] (partner 0.5 µM)
In short: as §1

Vemurafenib + Dasatinib = compound: CCCS(=O)(=O)Nc1ccc(F)c(C(=O)c2c[nH]c3ncc(-c4ccc(Cl)cc4)cc23)c1F [Vemurafenib] + Cc1nc(Nc2ncc(C(=O)Nc3c(C)cccc3Cl)s2)cc(N2CCN(CCO)CC2)n1 [Dasatinib] (partner 0.075 µM)
In short: as §1

OSI-027 + Trametinib = compound: COc1cccc2cc(-c3nc([C@H]4CC[C@H](C(=O)O)CC4)n4ncnc(N)c34)[nH]c12 [OSI-027] + CC(=O)Nc1cccc(-n2c(=O)n(C3CC3)c(=O)c3c(Nc4ccc(I)cc4F)n(C)c(=O)c(C)c32)c1 [Trametinib] (partner 0.02 µM)
In short: as §1

Cell Line	relative viability (Alpelisib + Vorinostat; first compound 0.04 µM)	relative viability (Alpelisib + Vorinostat; first compound 0.4 µM)	relative viability (Alpelisib + Vorinostat; first compound 1.265 µM)	relative viability (Alpelisib + Vorinostat; first compound 4 µM)	relative viability (OSI-027 + Navitoclax; first compound 0.01 µM)	relative viability (OSI-027 + Navitoclax; first compound 0.03162 µM)	relative viability (OSI-027 + Navitoclax; first compound 0.1 µM)	relative viability (OSI-027 + Navitoclax; first compound 0.3162 µM)	relative viability (OSI-027 + Navitoclax; first compound 1 µM)	relative viability (Vemurafenib + Dasatinib; first compound 0.1 µM)	relative viability (Vemurafenib + Dasatinib; first compound 1 µM)	relative viability (Alpelisib + Vorinostat; first compound 0.1265 µM)	relative viability (OSI-027 + Trametinib; first compound 0.01 µM)	relative viability (OSI-027 + Trametinib; first compound 0.03162 µM)	relative viability (OSI-027 + Trametinib; first compound 0.1 µM)	relative viability (OSI-027 + Trametinib; first compound 0.3162 µM)	relative viability (OSI-027 + Trametinib; first compound 1 µM)	relative viability (Vemurafenib + Dasatinib; first compound 0.03162 µM)	relative viability (Vemurafenib + Dasatinib; first compound 0.3162 µM)
IA-LM	0.882	1.32	0.92	0.867	0.873	0.572	0.481	0.182	0.0688	–	–	–	–	–	–	–	–	–	–
NCI-H1650	0.585	0.756	0.491	0.368	1.21	1.47	1.11	1.29	0.459	0.301	0.305	0.599	0.485	0.504	0.614	0.6	0.408	–	–
NCI-H322M	0.897	0.954	0.733	0.634	1.24	1.15	1.17	0.783	1.27	–	0.229	0.962	0.509	0.543	0.496	0.482	0.455	0.241	–
SW 1573	0.833	0.678	0.388	0.584	0.889	1.05	0.902	0.757	0.504	0.428	0.347	0.684	0.711	0.543	0.491	0.409	0.411	0.567	0.36
HCC-827	0.899	0.495	0.856	0.647	1.07	1.06	0.995	0.996	0.651	–	0.348	0.707	0.555	0.491	0.45	0.433	0.309	0.386	0.399
LU99A	0.462	0.508	0.415	0.334	0.754	0.651	0.695	0.427	0.154	0.554	0.431	0.488	0.581	0.508	0.424	0.342	0.209	0.425	0.389
LK-2	0.261	0.261	0.234	0.306	0.774	0.781	0.69	0.372	0.238	0.306	0.223	0.264	0.766	0.578	0.594	0.406	0.221	0.306	0.33
EMC-BAC-2	0.448	0.455	0.278	0.261	1.17	1.05	1.12	1.06	0.436	0.28	0.337	–	0.857	0.927	0.816	0.797	0.503	0.175	0.209
NCI-H2342	0.795	0.712	0.662	0.714	–	–	–	–	–	0.304	0.326	0.622	0.802	0.816	0.724	0.687	0.556	0.313	0.266
NCI-H460	0.717	0.938	0.564	0.434	1.21	1.06	1.3	0.789	0.0638	0.545	0.537	0.788	0.152	0.13	0.145	0.129	0.12	0.469	0.341
NCI-H441	0.681	0.961	0.603	0.401	0.47	0.57	0.425	0.47	0.185	0.663	0.542	0.716	0.346	0.434	0.486	0.362	0.253	0.565	0.838
NCI-H661	0.765	0.819	0.755	0.728	–	–	–	–	–	0.59	0.938	0.795	0.545	0.479	0.468	0.432	0.307	0.829	0.54
NCI-H727	1.1	1.07	1.06	0.848	0.406	0.418	0.477	0.378	0.318	–	0.421	1.2	0.346	0.412	0.349	0.387	0.395	0.323	0.724
NCI-H1651	0.534	0.552	0.517	0.504	1.07	–	0.935	0.836	0.341	0.462	0.452	0.619	0.829	0.736	0.838	0.805	0.607	0.417	0.277
NCI-H1355	0.626	0.677	0.529	0.398	0.84	0.868	0.855	0.529	0.205	0.703	0.745	0.609	0.401	0.458	0.341	0.3	0.252	0.671	0.466
NCI-H1793	0.62	0.839	0.598	0.325	0.399	0.387	0.407	0.318	0.223	–	0.307	0.977	0.489	0.431	0.35	0.344	0.21	0.415	0.237
NCI-H1666	0.978	1.07	0.876	0.727	0.912	0.878	0.662	0.575	0.391	0.837	0.709	1.1	0.865	0.848	0.843	0.765	0.692	0.741	0.644

— the supplement of paper PMC10307832
